The record followed here is patent US7541352B2, “Compounds for the treatment of hepatitis C” (Bristol-Myers Squibb Company, priority 2007, dated 2009).

For one assay, the system named is HCV replicon cells. Briefly: HCV replicon FRET assay. The settings on record: Hepatitis C virus. In kind it is cell-based. On the procedure:
FRET Assay Preparation. The HCV FRET screening assay was performed in 96-well cell culture plates. The FRET peptide (Anaspec, Inc.) (Taliani et al., Anal. Biochem. 1996, 240, 60-67) contains a fluorescence donor, EDANS, near one end of the peptide and an acceptor, DABCYL, near the other end. The fluorescence of the peptide is quenched by […] resonance energy transfer (RET) between the donor and the acceptor, but as the NS3 protease cleaves the peptide the products are released from RET quenching and the fluorescence of the donor becomes apparent. The assay reagent was made as follows: 5× cell Luciferase cell culture lysis reagent from Promega (#E153A) diluted to 1× with dH2O, NaCl added to 150 mM final, the FRET peptide diluted to 20 μM final from a 2 mM stock.
To prepare plates, HCV replicon cells, with or without a Renilla luciferase reporter gene, were trypsinized and plated in a 96-well plate with titrated test compounds added in columns 3 through 12; columns 1 and 2 contained a control compound (HCV control inhibitor), and the bottom row contained cells with DMSO only. The plates were then placed in a CO2 incubator at 37° C.
Assays. Subsequent to addition of the test compounds described above (FRET Assay Preparation), at various times the plate was removed and Alamar blue solution (Trek Diagnostics, #00-100) was added to measure cellular toxicity. After reading in a Cytoflour 4000 instrument (PE Biosystems), plates were rinsed with PBS and then used for FRET assay by the addition of 30 ul of the FRET peptide assay reagent described above (FRET Assay Preparation) per well. The plate was then placed into the Cytoflour 4000 instrument which had been set to 340 excite/490 emission, automatic mode for up to 20 cycles and the plate read in a kinetic mode. Typically, the signal to noise using an endpoint analysis after the reads was at least three-fold. Alternatively, after Alamar blue reading, plates were rinsed with PBS, then used for luciferase assay using the Promega Dual-Glo Luciferase Assay System or the Promega EnduRen Live Cell Substrate assay.
Compound analysis was performed by quantification of the relative HCV replicon inhibition and the relative cytotoxicity values. To calculate cytoxicity values, the average Alamar Blue fluorescence signals from the control wells were set as 100% non-toxic. The individual signals in each of the compound test wells were then divided by the average control signal and multiplied by 100% to determine […]. To calculate the HCV replicon inhibition values, an average background value was obtained from the two wells containing the highest amount of HCV control inhibitor at the end of the assay period. These numbers were similar to those obtained from naïve Huh-7 cells. The background numbers were then subtracted from the average signal obtained from the control wells and this number was used as 100% activity. The individual signals in each of the compound test wells were then divided by the averaged control values after background subtraction and multiplied by 100% to determine percent activity. EC50 values were calculated as the concentration which caused a 50% reduction in FRET or luciferase activity. The two numbers generated for the compound plate, percent cytoxicity and percent activity, were used to determine compounds of interest for further analysis.
In general terms: In antiviral work, replicon cells carry a viral genome segment that copies itself.

The target of assay [1] is T1, HCV NS5B RdRp genotype 1b (Hepatitis C virus genotype 1b, UniProt Q9WMX2).
T1 construct: The protein was expressed with an 18 amino acid C-terminal truncation to enhance the solubility; made in house; host or cells: E. coli BL21(DE3), pET21a
T1 sequence (Q9WMX2 2420-2992): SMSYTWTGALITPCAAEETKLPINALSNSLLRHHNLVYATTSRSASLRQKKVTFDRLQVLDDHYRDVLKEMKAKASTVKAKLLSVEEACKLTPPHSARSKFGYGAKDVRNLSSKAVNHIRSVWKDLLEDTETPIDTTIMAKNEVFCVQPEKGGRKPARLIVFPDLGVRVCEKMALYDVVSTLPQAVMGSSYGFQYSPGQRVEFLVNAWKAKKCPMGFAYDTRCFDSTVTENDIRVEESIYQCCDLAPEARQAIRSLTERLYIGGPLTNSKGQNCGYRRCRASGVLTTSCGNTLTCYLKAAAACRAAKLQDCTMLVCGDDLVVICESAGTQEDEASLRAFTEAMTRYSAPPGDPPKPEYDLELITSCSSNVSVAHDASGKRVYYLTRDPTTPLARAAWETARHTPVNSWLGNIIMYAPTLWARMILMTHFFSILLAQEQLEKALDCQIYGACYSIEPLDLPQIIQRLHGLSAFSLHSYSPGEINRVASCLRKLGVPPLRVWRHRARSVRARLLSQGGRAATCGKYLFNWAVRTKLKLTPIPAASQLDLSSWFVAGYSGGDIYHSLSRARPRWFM
Briefly: Modified HCV NS5B RdRp enzyme assay (preincubation protocol). In kind it is biochemical. How it is done: HCV NS5B RdRp cloning, expression, and purification. The cDNA encoding the NS5B protein of HCV, genotype 1b, was cloned into the pET21a expression vector. The protein was expressed with an 18 amino acid C-terminal truncation to enhance the solubility. The E. coli competent cell line BL21(DE3) was used for expression of the protein. Cultures were grown at 37° C. for ˜4 hours until the cultures reached an optical density of 2.0 at 600 nm. The cultures were cooled to 20° C. and induced with 1 mM IPTG. Fresh ampicillin was added to a final concentration of 50 μg/ml and the cells were grown overnight at 20° C.
Cell pellets (3 L) were lysed for purification to yield 15-24 mgs of purified NS5B. The lysis buffer consisted of 20 mM Tris-HCl, pH 7.4, 500 mM NaCl, 0.5% triton X-100, 1 mM DTT, 1 mM EDTA, 20% glycerol, 0.5 mg/ml lysozyme, 10 mM MgCl2, 15 ug/ml deoxyribonuclease I, and Complete TM protease inhibitor tablets (Roche). After addition of the lysis buffer, frozen cell pellets were resuspended using a tissue homogenizer. To reduce the viscosity of the sample, aliquots of the lysate were sonicated on ice using a microtip attached to a Branson sonicator. The sonicated lysate was centrifuged at 100,000×g for 1 hr at 4° C. and filtered through a 0.2 μm filter unit (Corning).
The protein was purified using two sequential chromatography steps: Heparin sepharose CL-6B and polyu sepharose 4B (Pharmacia). The chromatography buffers were identical to the lysis buffer but contained no lysozyme, deoxyribonuclease I, MgCl2 or protease inhibitor and the NaCl concentration of the buffer was adjusted according to the requirements for charging the protein onto the column. Each column was eluted with a NaCl gradient which varied in length from 5-50 column volumes depending on the column type. After the final chromatography step, the resulting purity of the enzyme is >90% based on SDS-PAGE analysis. The enzyme was aliquoted and stored at −80° C.
Standard HCV NS5B RdRp enzyme assay. HCV RdRp genotype 1b assays were run in a final volume of 60 μl in 96 well plates (Corning 3600). The assay buffer is composed of 20 mM Hepes, pH 7.5, 2.5 mM KCl, 2.5 mM MgCl2, 1 mM DTT, 1.6 U RNAse inhibitor (Promega N2515), 0.01 mg/ml BSA (Sigma B6917), and 2% glycerol. All compounds were serially diluted (3-fold) in DMSO and diluted further in water such that the final concentration of DMSO in the assay was 2%. HCV RdRp genotype 1b enzyme was used at a final concentration of 28 nM. A polyA template was used at 6 nM, and a biotinylated oligo-dT 12 primer was used at 180 nM final concentration. Template was obtained commercially (Amersham 27-4110). Biotinylated primer was prepared by Sigma Genosys. 3H-UTP was used at 0.6 μCi (0.29 μM total UTP). Reactions were initiated by the addition of enzyme, incubated at 30° C. for 60 min, and stopped by adding 25 μl of 50 mM EDTA containing SPA beads (4 μg/μl, Amersham RPNQ 0007). Plates were read on a Packard Top Count NXT after >1 hr incubation at room temperature.
Modified HCV NS5B RdRp enzyme assay. A modified enzyme assay was performed essentially as described for the standard enzyme assay except for the following: The biotinylated oligo dT12 primer was precaptured on streptavidin-coated SPA beads by mixing primer and beads in assay buffer and incubating at room temperature for one hour. Unbound primer was removed after centrifugation. The primer-bound beads were resuspended in 20 mM Hepes buffer, pH 7.5 and used in the assay at final concentrations of 20 nM primer and 0.67 μg/μl beads. Order of addition in the assay: enzyme (1.75 nM) was added to diluted compound followed by the addition of a mixture of template (0.36 nM), 3H-UTP (0.6 μCi, 0.29 μM), and primer-bound beads, to initiate the reaction; concentrations given are final. Reactions were allowed to proceed for 4 hours at 30° C.
IC50 values for compounds were determined using seven different [I]. […]

[2] abbreviates: HCV replicon cells, determined using the FRET assay, read-out: EC50.
[3] abbreviates: HCV NS5B RdRp, determined using the preincubation protocol, read-out: IC50.

The EC50 is the concentration that produces a half-maximal response. As a reminder, the IC50 is the midpoint of a concentration-inhibition curve.

Where two headings read alike, the source gives them in different places.

Consider `COc1ccc2c(c1)C1CC1(NC(=O)C(=O)N1CCCC1)Cn1c-2c(C2CCCCC2)c2ccc(C(=O)NS(=O)(=O)N(C)C)cc21` (stereo not shown) [drawing 32], for which, in the assay with HCV replicon cells (setting [2]), the EC50 is 0.001 to 0.5 µM. In addition, the IC50 in assay [1] (setting [3]) fell in the range of 0.001 to 0.5 µM.
With `Cc1ccc2c(c1)C1CC1(NC(=O)C(=O)N(C)C)Cn1c-2c(C2CCCCC2)c2ccc(C(=O)NS(=O)(=O)C3CCC3)cc21` (stereo not shown), the EC50 in the assay with HCV replicon cells (setting [2]) was in the range of 0.001 to 0.5 µM. In addition, the IC50 in assay [1] (setting [3]) was 0.001 to 0.5 µM.
On to `COc1ccc2c(c1)C1CC1(NS(=O)(=O)C1CCN(C(=O)OCc3ccccc3)CC1)Cn1c-2c(C2CCCCC2)c2ccc(C(=O)NS(=O)(=O)N(C)C)cc21` (stereo not shown), for which the concentration for a half-maximal effect (EC50) in the assay with HCV replicon cells (setting [2]) lay in the range of 0.001 to 0.5 µM. In assay [1] (setting [3]), the IC50 lay in the range of 0.001 to 0.5 µM.
Consider `COc1ccc2c(c1)C1CC1(NC(=O)C(=O)N1CCOCC1)Cn1c-2c(C2CCCCC2)c2ccc(C(=O)NS(=O)(=O)N(C)C)cc21` (stereo not shown), for which the EC50 in the assay with HCV replicon cells (setting [2]) fell in the range of 0.001 to 0.5 µM. Also, the IC50 in assay [1] (setting [3]) lay in the range of 0.001 to 0.5 µM.
With `COc1ccc2c(c1)C1CC1(NC(=O)C(=O)N(C)C)Cn1c-2c(C2CCCCC2)c2ccc(C(=O)NS(=O)(=O)N(C)C)cc21` (stereo not shown), in the assay on HCV replicon cells (setting [2]), the EC50 fell in the range of 0.001 to 0.5 µM. In addition, in assay [1] (setting [3]), the half-inhibitory concentration (IC50) was in the range of 0.001 to 0.5 µM.
With `COC(=O)C(=O)NC12CC1c1cc(OC)ccc1-c1c(C3CCCCC3)c3ccc(C(=O)NS(=O)(=O)N(C)C)cc3n1C2` (stereo not shown), the EC50 with HCV replicon cells (setting [2]) fell in the range of 0.001 to 0.5 µM. Further, in assay [1] (setting [3]), the half-maximal inhibitory concentration (IC50) lay in the range of 0.001 to 0.5 µM.
In turn, `COc1ccc2c(c1)[C@@H]1C[C@]1(NC(=O)N1C3CCC1CN(C)C3)Cn1c-2c(C2CCCCC2)c2ccc(C(=O)NS(=O)(=O)N(C)C)cc21` displayed a half-maximal effective concentration (EC50) with HCV replicon cells of 0.001 to 0.5 µM. This compound also registered an IC50 in assay [1] of 0.001 to 0.5 µM.
In the case of `COc1ccc2c(c1)[C@@H]1C[C@]1(N(C)C(=O)C(=O)N1CCOCC1c1ccccc1)Cn1c-2c(C2CCCCC2)c2ccc(C(=O)NS(=O)(=O)N(C)C)cc21` (stereo partly shown), the EC50 in the assay on HCV replicon cells (setting [2]) lay in the range of 0.001 to 0.5 µM. Besides, the IC50 in assay [1] (setting [3]) lay in the range of 0.001 to 0.5 µM.
Take `COc1ccc2c(c1)C1CC1(NC(=O)C(=O)N1CCN3CCC1CC3)Cn1c-2c(C2CCCCC2)c2ccc(C(=O)NS(=O)(=O)N(C)C)cc21` (stereo not shown): in the assay with HCV replicon cells (setting [2]), the concentration giving a half-maximal response (EC50) was 0.001 to 0.5 µM. In addition, the IC50 in assay [1] (setting [3]) lay within 0.001 to 0.5 µM.
For `COc1ccc2c(c1)C1CC1(NC(=O)C(=O)N1C[C@@H](C)N(C)[C@@H](C)C1)Cn1c-2c(C2CCCCC2)c2ccc(C(=O)NS(=O)(=O)N(C)C)cc21` (stereo partly shown), in the assay with HCV replicon cells (setting [2]), the EC50 lay within 0.001 to 0.5 µM. Also, the half-inhibitory concentration (IC50) in assay [1] (setting [3]) lay within 0.001 to 0.5 µM.
Take `COc1ccc2c(c1)[C@@H]1C[C@]1(NC(=O)C(=O)N1C[C@@H](C)O[C@@H](C)C1)Cn1c-2c(C2CCCCC2)c2ccc(C(=O)NS(=O)(=O)N(C)C)cc21` [drawing 43]: in the assay on HCV replicon cells (setting [2]), the EC50 was 0.001 to 0.5 µM. The IC50 in assay [1] (setting [3]) lay in the range of 0.001 to 0.5 µM.
